# Laboratory results as given in patent US20250144094A1 (Erasca, Inc., priority 2021, published 2025).
# Molecular target: Recombinant human ULK1 (1-649) (Homo sapiens (Human), UniProt O75385)
# Assay: ULK1 ADP Glo kinase activity assay, new method (ULKtide peptide substrate)
# Conditions: 25° C., 40 minutes, read-out: ULK1 biochemical IC50
# Method in brief: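 GST-tagged human ULK1 (1-649) from Sf9 cells was reacted with ULKtide peptide and ATP for 40 min at 25 °C across 12-point compound dilutions from 10 μM. ADP formed was quantified by ADP-Glo luminescence; IC50 came from four-parameter fits relative to DMSO controls.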
# Recombinant human ULK1 (1-649), sequence (O75385 1-649): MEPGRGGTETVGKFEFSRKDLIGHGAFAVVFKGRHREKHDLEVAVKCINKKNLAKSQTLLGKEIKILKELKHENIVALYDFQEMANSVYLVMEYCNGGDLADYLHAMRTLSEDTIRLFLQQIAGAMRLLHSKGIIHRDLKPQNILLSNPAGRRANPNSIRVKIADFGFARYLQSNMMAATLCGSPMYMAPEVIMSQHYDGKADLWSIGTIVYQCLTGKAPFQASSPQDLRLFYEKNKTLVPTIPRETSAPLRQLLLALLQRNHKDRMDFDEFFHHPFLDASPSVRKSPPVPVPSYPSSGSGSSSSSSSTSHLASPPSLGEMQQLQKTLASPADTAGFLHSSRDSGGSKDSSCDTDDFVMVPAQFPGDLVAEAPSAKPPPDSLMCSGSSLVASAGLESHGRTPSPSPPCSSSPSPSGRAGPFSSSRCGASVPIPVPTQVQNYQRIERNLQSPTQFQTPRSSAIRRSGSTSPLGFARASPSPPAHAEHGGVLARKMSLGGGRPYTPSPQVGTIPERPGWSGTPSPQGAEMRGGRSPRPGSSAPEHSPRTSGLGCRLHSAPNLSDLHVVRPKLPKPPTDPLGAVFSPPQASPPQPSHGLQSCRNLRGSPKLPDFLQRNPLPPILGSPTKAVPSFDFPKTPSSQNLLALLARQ
row,IC50 [nM],SMILES
1,5 to 10,"C[C@H]1CN(c2ccc(Nc3ncc(C(F)(F)F)c(-c4cc5c(s4)C(=O)N(C4CC4)CCS5(=O)=O)n3)c(C3CC3)c2)C[C@H](C)N1C [Example 328, 4-cyclopropyl-7-(2-((2-cyclopropyl-4-((3S,5S)-3,4,5-trimethylpiperazin-1-yl)phenyl)amino)-5-(trifluoromethyl)pyrimidin-4-yl)-3,4-dihydrothieno[2,3-f][1,4]thiazepin-5(2H)-one 1,1-dioxide]"
2,≤ 5,"C[C@H]1CN(c2ccc(Nc3ncc(C(F)(F)F)c(-c4cc5c(s4)C(=O)N(C4COC4)CCS5(=O)=O)n3)c(C3CC3)c2)C[C@H](C)N1 [Example 344, 7-(2-((2-Cyclopropyl-4-((3S,5S)-3,5-dimethylpiperazin-1-yl)phenyl)amino)-5-(trifluoromethyl)pyrimidin-4-yl)-4-(oxetan-3-yl)-3,4-dihydrothieno[2,3-f][1,4]thiazepin-5(2H)-one 1,1-dioxide]"
3,≤ 5,"Cc1cc2c(cc1Nc1ncc(C(F)(F)F)c(-c3cc4c(s3)C(=O)N(C)CCS4(=O)=O)n1)CCN(CC1COC1)C2 [Example 216, 4-methyl-7-(2-((7-methyl-2-(oxetan-3-ylmethyl)-1,2,3,4-tetrahydroisoquinolin-6-yl)amino)-5-(trifluoromethyl)pyrimidin-4-yl)-3,4-dihydrothieno[2,3-f][1,4]thiazepin-5(2H)-one 1,1-dioxide]"
4,≤ 5,"CCc1cc(N2C[C@H]3C[C@@H]2CN3C)ccc1Nc1ncc(C(F)(F)F)c(-c2cc3c(s2)C(=O)N(C2COC2)CCS3(=O)=O)n1 [Example 347, 7-(2-((2-ethyl-4-((1R,4R)-5-methyl-2,5-diazabicyclo[2.2.1]heptan-2-yl)phenyl)amino)-5-(trifluoromethyl)pyrimidin-4-yl)-4-(oxetan-3-yl)-3,4-dihydrothieno[2,3-f][1,4]thiazepin-5(2H)-one 1,1-dioxide]"
5,≤ 5,"CCc1cc(N2C[C@@H](C)N[C@@H](C)C2)ccc1Nc1ncc(C(F)(F)F)c(-c2cc3c(s2)C(=O)N(C2COC2)CCS3(=O)=O)n1 [Example 368, 7-(2-((4-((3S,5R)-3,5-dimethylpiperazin-1-yl)-2-ethylphenyl)amino)-5-(trifluoromethyl)pyrimidin-4-yl)-4-(oxetan-3-yl)-3,4-dihydrothieno[2,3-f][1,4]thiazepin-5(2H)-one 1,1-dioxide]"
6,≤ 5,"CN1CCc2cc(Nc3ncc(C(F)(F)F)c(-c4cc5c(s4)C(=O)N(C4CCC4)CCS5(=O)=O)n3)c(Cl)cc2C1 [Example 168, 7-(2-((7-chloro-2-methyl-1,2,3,4-tetrahydroisoquinolin-6-yl)amino)-5-(trifluoromethyl)pyrimidin-4-yl)-4-cyclobutyl-3,4-dihydrothieno[2,3-f][1,4]thiazepin-5(2H)-one 1,1-dioxide]"
7,≤ 5,"CCc1cc(N2C[C@H](C)N[C@@H](C)C2)ccc1Nc1ncc(C(F)(F)F)c(-c2cc3c(s2)C(=O)N(C2COC2)CCS3(=O)=O)n1 [Example 370, 7-(2-((4-((3S,5S)-3,5-dimethylpiperazin-1-yl)-2-ethylphenyl)amino)-5-(trifluoromethyl)pyrimidin-4-yl)-4-(oxetan-3-yl)-3,4-dihydrothieno[2,3-f][1,4]thiazepin-5(2H)-one 1,1-dioxide]"
8,≤ 5,"CN1CCS(=O)(=O)c2cc(-c3nc(Nc4cc5c(cc4Cl)CN(CC4CC4)CC5)ncc3C(F)(F)F)sc2C1=O [Example 246, 7-(2-((7-chloro-2-(cyclopropylmethyl)-1,2,3,4-tetrahydroisoquinolin-6-yl)amino)-5-(trifluoromethyl)pyrimidin-4-yl)-4-methyl-3,4-dihydrothieno[2,3-f][1,4]thiazepin-5(2H)-one 1,1-dioxide]"
9,≤ 5,"CCc1cc(N2CCNCC2)ccc1Nc1ncc(C(F)(F)F)c(-c2cc3c(s2)C(=O)N(C2COC2)CCS3(=O)=O)n1 [Example 364, 7-(2-((2-ethyl-4-(piperazin-1-yl)phenyl)amino)-5-(trifluoromethyl)pyrimidin-4-yl)-4-(oxetan-3-yl)-3,4-dihydrothieno[2,3-f][1,4]thiazepin-5(2H)-one 1,1-dioxide]"
10,≤ 5,"C[C@H]1CN(c2ccc(Nc3ncc(C(F)(F)F)c(-c4cc5c(s4)C(=O)N(C)CCS5(=O)=O)n3)c(C3CC3)c2)CCN1 [Example 380, (S)-7-(2-((2-cyclopropyl-4-(3-methylpiperazin-1-yl)phenyl)amino)-5-(trifluoromethyl)pyrimidin-4-yl)-4-methyl-3,4-dihydrothieno[2,3-f][1,4]thiazepin-5(2H)-one 1,1-dioxide]"
11,≤ 5,"O=C1c2sc(-c3nc(Nc4cc5c(cc4C4CC4)CN(CC4COC4)CC5)ncc3C(F)(F)F)cc2S(=O)(=O)CCN1C1COC1 [Example 257, 7-(2-((7-cyclopropyl-2-(oxetan-3-ylmethyl)-1,2,3,4-tetrahydroisoquinolin-6-yl)amino)-5-(trifluoromethyl)pyrimidin-4-yl)-4-(oxetan-3-yl)-3,4-dihydrothieno[2,3-f][1,4]thiazepin-5(2H)-one 1,1-dioxide]"
12,> 100,"Cc1nn(C2CCNCC2)cc1Nc1ncc(C(F)(F)F)c(-c2cc3c(s2)C(=O)NCCS3(=O)=O)n1 [Example 165, 7-(2-((3-methyl-1-(piperidin-4-yl)-1H-pyrazol-4-yl)amino)-5-(trifluoromethyl)pyrimidin-4-yl)-3,4-dihydrothieno[2,3-f][1,4]thiazepin-5(2H)-one 1,1-dioxide]"
13,≤ 5,"CCc1cc(N2CCN[C@@H](C)C2)ccc1Nc1ncc(C(F)(F)F)c(-c2cc3c(s2)C(=O)N(C2COC2)CCS3(=O)=O)n1 [Example 354, (S)-7-(2-((2-ethyl-4-(3-methylpiperazin-1-yl)phenyl)amino)-5-(trifluoromethyl)pyrimidin-4-yl)-4-(oxetan-3-yl)-3,4-dihydrothieno[2,3-f][1,4]thiazepin-5(2H)-one 1,1-dioxide]"
14,≤ 5,"CN1CCS(=O)(=O)c2cc(-c3nc(Nc4cc5c(cc4F)CNC5)ncc3C(F)(F)F)sc2C1=O [Example 157, 7-(2-((6-fluoroisoindolin-5-yl)amino)-5-(trifluoromethyl)pyrimidin-4-yl)-4-methyl-3,4-dihydrothieno[2,3-f][1,4]thiazepin-5(2H)-one 1,1-dioxide]"
15,5 to 10,"O=C1c2sc(-c3nc(Nc4cc5c(cc4C4CC4)CN(C4CC4)CC5)ncc3C(F)(F)F)cc2S(=O)(=O)CCN1C1CC1 [Example 293, 4-Cyclopropyl-7-(2-((2,7-dicyclopropyl-1,2,3,4-tetrahydroisoquinolin-6-yl)amino)-5-(trifluoromethyl)pyrimidin-4-yl)-3,4-dihydrothieno[2,3-f][1,4]thiazepin-5(2H)-one 1,1-dioxide]"
16,≤ 5,"C[C@H]1CN(c2ccc(Nc3ncc(C(F)(F)F)c(-c4cc5c(s4)C(=O)N(C4CC4)CCS5(=O)=O)n3)c(C3CC3)c2)C[C@H](C)N1 [Example 327, 4-cyclopropyl-7-(2-((2-cyclopropyl-4-((3S,5S)-3,5-dimethylpiperazin-1-yl)phenyl)amino)-5-(trifluoromethyl)pyrimidin-4-yl)-3,4-dihydrothieno[2,3-f][1,4]thiazepin-5(2H)-one 1,1-dioxide]"
17,10 to 50,"CN1CCS(=O)(=O)c2cc(-c3nc(Nc4ccc5c(c4C4CC4)CNC5)ncc3C(F)(F)F)sc2C1=O [Example 170, 7-(2-((4-cyclopropylisoindolin-5-yl)amino)-5-(trifluoromethyl)pyrimidin-4-yl)-4-methyl-3,4-dihydrothieno[2,3-f][1,4]thiazepin-5(2H)-one 1,1-dioxide]"
18,≤ 5,"CCc1cc(N2CCN(C)CC2)ccc1Nc1ncc(C(F)(F)F)c(-c2cc3c(s2)C(=O)N(C)CCS3(=O)=O)n1 [Example 196, 7-(2-((2-ethyl-4-(4-methylpiperazin-1-yl)phenyl)amino)-5-(trifluoromethyl)pyrimidin-4-yl)-4-methyl-3,4-dihydrothieno[2,3-f][1,4]thiazepin-5(2H)-one 1,1-dioxide]"
19,≤ 5,"C[C@@H]1CN(c2ccc(Nc3ncc(C(F)(F)F)c(-c4cc5c(s4)C(=O)N(C4COC4)CCS5(=O)=O)n3)c(C3CC3)c2)C[C@H](C)N1C [Example 357, 7-(2-((2-cyclopropyl-4-((3S,5R)-3,4,5-trimethylpiperazin-1-yl)phenyl)amino)-5-(trifluoromethyl)pyrimidin-4-yl)-4-(oxetan-3-yl)-3,4-dihydrothieno[2,3-f][1,4]thiazepin-5(2H)-one 1,1-dioxide]"
20,≤ 5,"NC(=O)[C@@H]1CN(c2ccc(Nc3ncc(C(F)(F)F)c(-c4cc5c(s4)C(=O)N(C4COC4)CCS5(=O)=O)n3)c(C3CC3)c2)CCN1 [Example 371, (S)-4-(3-cyclopropyl-4-((4-(4-(oxetan-3-yl)-1,1-dioxido-5-oxo-2,3,4,5-tetrahydrothieno[2,3-f][1,4]thiazepin-7-yl)-5-(trifluoromethyl)pyrimidin-2-yl)amino)phenyl)piperazine-2-carboxamide]"
21,≤ 5,"O=C1c2sc(-c3nc(Nc4cc5c(cc4Cl)CNCC5)ncc3C(F)(F)F)cc2S(=O)(=O)CCN1C1COC1 [Example 210, 7-(2-((7-chloro-1,2,3,4-tetrahydroisoquinolin-6-yl)amino)-5-(trifluoromethyl)pyrimidin-4-yl)-4-(oxetan-3-yl)-3,4-dihydrothieno[2,3-f][1,4]thiazepin-5(2H)-one 1,1-dioxide]"

row,SMILES,IC50 [nM]
1,"O=C1c2sc(-c3nc(Nc4ccc(N5C[C@H]6CC[C@@H](C5)N6)cc4C4CC4)ncc3C(F)(F)F)cc2S(=O)(=O)CCN1C1COC1 [Example 318, 7-(2-((4-((1R,5S)-3,8-diazabicyclo[3.2.1]octan-3-yl)-2-cyclopropylphenyl)amino)-5-(trifluoromethyl)pyrimidin-4-yl)-4-(oxetan-3-yl)-3,4-dihydrothieno[2,3-f][1,4]thiazepin-5(2H)-one 1,1-dioxide]",≤ 5
2,"CCc1cc(N2C[C@H]3CC[C@@H](C2)N3)ccc1Nc1ncc(C(F)(F)F)c(-c2cc3c(s2)C(=O)N(C2COC2)CCS3(=O)=O)n1 [Example 337, 7-(2-((4-((1R,5S)-3,8-diazabicyclo[3.2.1]octan-3-yl)-2-ethylphenyl)amino)-5-(trifluoromethyl)pyrimidin-4-yl)-4-(oxetan-3-yl)-3,4-dihydrothieno[2,3-f][1,4]thiazepin-5(2H)-one 1,1-dioxide]",≤ 5
